According to PubChem BioAssay (NCI):
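Results reflect a 48-hour exposure of cells in 96-well plates to compound at five concentrations. TGI is the concentration that stops growth completely.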

How the values were obtained:
Test in all cases: NCI anticancer screen, dose series, 48 h
786-0 renal = system: 786-0 renal
A549 NSCLC = system: A549 NSCLC
ACHN renal = system: ACHN renal
CAKI-1 renal = system: CAKI-1 renal
CCRF-CEM leukemia = system: CCRF-CEM leukemia
COLO 205 colon = system: COLO 205 colon
DLD-1 colon = system: DLD-1 colon
DMS 114 small cell lung = system: DMS 114 small cell lung
DMS 273 small cell lung = system: DMS 273 small cell lung
EKVX NSCLC = system: EKVX NSCLC
HCC-2998 colon = system: HCC-2998 colon
HCT-15 colon = system: HCT-15 colon
HL-60(TB) leukemia = system: HL-60(TB) leukemia
HOP-62 NSCLC = system: HOP-62 NSCLC
HOP-92 NSCLC = system: HOP-92 NSCLC
HT29 colon = system: HT29 colon
IGROV1 ovarian = system: IGROV1 ovarian
K-562 leukemia = system: K-562 leukemia
KM12 colon = system: KM12 colon
KM20L2 colon = system: KM20L2 colon
LOX IMVI melanoma = system: LOX IMVI melanoma
LXFL 529 NSCLC = system: LXFL 529 NSCLC
M14 melanoma = system: M14 melanoma
M19-MEL melanoma = system: M19-MEL melanoma
MALME-3M melanoma = system: MALME-3M melanoma
MOLT-4 leukemia = system: MOLT-4 leukemia
NCI-H23 lung = system: NCI-H23 lung
NCI-H460 lung = system: NCI-H460 lung
NCI-H522 lung = system: NCI-H522 lung
OVCAR-3 ovarian = system: OVCAR-3 ovarian
OVCAR-4 ovarian = system: OVCAR-4 ovarian
OVCAR-5 ovarian = system: OVCAR-5 ovarian
OVCAR-8 ovarian = system: OVCAR-8 ovarian
RPMI-8226 leukemia = system: RPMI-8226 leukemia
RXF 393 renal = system: RXF 393 renal
RXF-631 renal = system: RXF-631 renal
SF-268 CNS = system: SF-268 CNS
SF-295 CNS = system: SF-295 CNS
SK-MEL-2 melanoma = system: SK-MEL-2 melanoma
SK-MEL-28 melanoma = system: SK-MEL-28 melanoma
SK-MEL-5 melanoma = system: SK-MEL-5 melanoma
SK-OV-3 ovarian = system: SK-OV-3 ovarian
SN12C renal = system: SN12C renal
SNB-19 CNS = system: SNB-19 CNS
SNB-75 CNS = system: SNB-75 CNS
SNB-78 CNS = system: SNB-78 CNS
SW-620 colon = system: SW-620 colon
TK-10 renal = system: TK-10 renal
UACC-257 melanoma = system: UACC-257 melanoma
UACC-62 melanoma = system: UACC-62 melanoma
UO-31 renal = system: UO-31 renal
HCT-116 colon = system: HCT-116 colon
HOP-18 NSCLC = system: HOP-18 NSCLC
NCI-H226 lung = system: NCI-H226 lung
SF-539 CNS = system: SF-539 CNS
SR leukemia = system: SR leukemia
U251 CNS = system: U251 CNS

For `CCOC(=O)C(=O)CC(=O)C(Br)C(Br)c1ccc(Cl)cc1` (stereo not given), the TGI (786-0 renal) was 34 µM, the TGI (A549 NSCLC) was > 100 µM and the TGI (ACHN renal) was > 100 µM. For the same compound, the TGI (CAKI-1 renal) was > 100 µM, the TGI (CCRF-CEM leukemia) was 29.3 µM and the TGI (COLO 205 colon) was 53.5 µM. The TGI (DLD-1 colon) was 43.1 µM, the TGI (DMS 114 small cell lung) was > 100 µM and the TGI (DMS 273 small cell lung) was > 100 µM. For the same compound, the TGI (EKVX NSCLC) was > 100 µM, the TGI (HCC-2998 colon) was > 100 µM and the TGI (HCT-15 colon) was > 100 µM. For the same compound, the TGI (HL-60(TB) leukemia) was 42 µM, the TGI (HOP-62 NSCLC) was > 100 µM and the TGI (HOP-92 NSCLC) was 59.6 µM. The TGI (HT29 colon) was 34.7 µM, the TGI (IGROV1 ovarian) was > 100 µM and the TGI (K-562 leukemia) was 40.8 µM. For the same compound, the TGI (KM12 colon) was > 100 µM, the TGI (KM20L2 colon) was > 100 µM and the TGI (LOX IMVI melanoma) was 78.1 µM. For the same compound, the TGI (LXFL 529 NSCLC) was 31.9 µM, the TGI (M14 melanoma) was 50.7 µM and the TGI (M19-MEL melanoma) was 52.4 µM. The TGI (MALME-3M melanoma) was > 100 µM, the TGI (MOLT-4 leukemia) was 53 µM and the TGI (NCI-H23 lung) was 96.1 µM. The TGI (NCI-H460 lung) was > 100 µM, the TGI (NCI-H522 lung) was 45.7 µM and the TGI (OVCAR-3 ovarian) was 87.8 µM. For the same compound, the TGI (OVCAR-4 ovarian) was > 100 µM, the TGI (OVCAR-5 ovarian) was > 100 µM and the TGI (OVCAR-8 ovarian) was > 100 µM. For the same compound, the TGI (RPMI-8226 leukemia) was 51.8 µM, the TGI (RXF 393 renal) was 62.6 µM and the TGI (RXF-631 renal) was > 100 µM. The TGI (SF-268 CNS) was > 100 µM, the TGI (SF-295 CNS) was > 100 µM and the TGI (SK-MEL-2 melanoma) was > 100 µM. The TGI (SK-MEL-28 melanoma) was 72.3 µM, the TGI (SK-MEL-5 melanoma) was > 100 µM and the TGI (SK-OV-3 ovarian) was > 100 µM. For the same compound, the TGI (SN12C renal) was > 100 µM, the TGI (SNB-19 CNS) was 64.6 µM and the TGI (SNB-75 CNS) was > 100 µM. For the same compound, the TGI (SNB-78 CNS) was > 100 µM, the TGI (SW-620 colon) was > 100 µM and the TGI (TK-10 renal) was > 100 µM. For the same compound, the TGI (UACC-257 melanoma) was 90.1 µM, the TGI (UACC-62 melanoma) was > 100 µM and the TGI (UO-31 renal) was > 100 µM.
In the case of `N#C/C(=C/c1ccc([N+](=O)[O-])o1)c1ccccc1`, the TGI (786-0 renal) is reported as > 100 µM, the TGI (A549 NSCLC) is reported as > 100 µM and the TGI (ACHN renal) is reported as > 100 µM. For the same compound, the TGI (CAKI-1 renal) was > 100 µM, the TGI (CCRF-CEM leukemia) was > 100 µM and the TGI (COLO 205 colon) was > 100 µM. For the same compound, the TGI (DLD-1 colon) was > 100 µM, the TGI (DMS 114 small cell lung) was > 100 µM and the TGI (DMS 273 small cell lung) was > 100 µM. The TGI (EKVX NSCLC) was > 100 µM, the TGI (HCC-2998 colon) was > 100 µM and the TGI (HCT-116 colon) was > 100 µM. The TGI (HL-60(TB) leukemia) was > 100 µM, the TGI (HOP-18 NSCLC) was > 100 µM and the TGI (HOP-62 NSCLC) was > 100 µM. For the same compound, the TGI (HOP-92 NSCLC) was > 100 µM, the TGI (HT29 colon) was > 100 µM and the TGI (K-562 leukemia) was > 100 µM. For the same compound, the TGI (KM12 colon) was > 100 µM, the TGI (KM20L2 colon) was > 100 µM and the TGI (LOX IMVI melanoma) was > 100 µM. For the same compound, the TGI (LXFL 529 NSCLC) was > 100 µM, the TGI (M14 melanoma) was > 100 µM and the TGI (M19-MEL melanoma) was > 100 µM. The TGI (MALME-3M melanoma) was > 100 µM, the TGI (MOLT-4 leukemia) was > 100 µM and the TGI (NCI-H226 lung) was > 100 µM. For the same compound, the TGI (NCI-H23 lung) was > 100 µM, the TGI (NCI-H460 lung) was > 100 µM and the TGI (NCI-H522 lung) was > 100 µM. The TGI (OVCAR-3 ovarian) was > 100 µM, the TGI (OVCAR-4 ovarian) was > 100 µM and the TGI (OVCAR-5 ovarian) was > 100 µM. For the same compound, the TGI (OVCAR-8 ovarian) was > 100 µM, the TGI (RPMI-8226 leukemia) was > 100 µM and the TGI (RXF 393 renal) was > 100 µM. The TGI (SF-268 CNS) was > 100 µM, the TGI (SF-295 CNS) was > 100 µM and the TGI (SF-539 CNS) was > 100 µM. For the same compound, the TGI (SK-MEL-2 melanoma) was > 100 µM, the TGI (SK-MEL-28 melanoma) was > 100 µM and the TGI (SK-MEL-5 melanoma) was > 100 µM. For the same compound, the TGI (SK-OV-3 ovarian) was > 100 µM, the TGI (SN12C renal) was > 100 µM and the TGI (SNB-19 CNS) was > 100 µM. The TGI (SNB-75 CNS) was > 100 µM, the TGI (SNB-78 CNS) was > 100 µM and the TGI (SR leukemia) was > 100 µM. For the same compound, the TGI (SW-620 colon) was > 100 µM, the TGI (TK-10 renal) was > 100 µM and the TGI (U251 CNS) was > 100 µM. For the same compound, the TGI (UACC-257 melanoma) was > 100 µM, the TGI (UACC-62 melanoma) was > 100 µM and the TGI (UO-31 renal) was > 100 µM.
